Experiments:
[1] = biological target: T1, OATP1B3 (Homo sapiens, UniProt Q9NPD5); assay: Uptake into stable transfected OATP1B3 HEK 293 cells; type: cell-based; conditions: OATP1B3-HEK 293 cell uptake with Rifampicine
T1 sequence (Q9NPD5 1-702): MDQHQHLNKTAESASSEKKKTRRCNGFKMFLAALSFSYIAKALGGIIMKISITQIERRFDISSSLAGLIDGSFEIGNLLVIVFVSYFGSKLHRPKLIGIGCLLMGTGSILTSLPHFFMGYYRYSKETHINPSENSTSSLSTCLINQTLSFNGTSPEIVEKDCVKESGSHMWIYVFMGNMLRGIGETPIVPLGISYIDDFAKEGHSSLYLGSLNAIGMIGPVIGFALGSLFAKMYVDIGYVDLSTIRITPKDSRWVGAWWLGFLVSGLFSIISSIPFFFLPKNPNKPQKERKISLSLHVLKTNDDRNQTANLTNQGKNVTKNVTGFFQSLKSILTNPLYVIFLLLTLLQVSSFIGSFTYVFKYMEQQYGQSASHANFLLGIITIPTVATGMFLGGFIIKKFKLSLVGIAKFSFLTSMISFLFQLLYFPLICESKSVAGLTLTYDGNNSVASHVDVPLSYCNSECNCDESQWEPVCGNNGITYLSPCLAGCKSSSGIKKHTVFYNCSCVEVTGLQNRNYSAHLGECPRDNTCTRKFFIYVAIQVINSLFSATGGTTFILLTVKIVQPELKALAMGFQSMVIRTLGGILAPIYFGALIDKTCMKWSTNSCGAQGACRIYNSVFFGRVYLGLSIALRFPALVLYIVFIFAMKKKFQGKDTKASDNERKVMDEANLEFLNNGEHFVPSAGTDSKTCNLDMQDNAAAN

[2] = Water solubility in aqueous buffer; type: physicochemical; conditions: aqueous buffer 10 mM Tris-HCl, pH 7.4, 20°C; Gd by ICP-MS
Protocol: The exploratory water solubility of the compounds is determined at room temperature (20°C) in 0.5 mL buffer solution (10 mM Tris-HCI, pH 7.4) in the microcentrifuge tubes (Eppendorf, 2.0 mL safe-lock caps). The solid compounds were added stepwise to the buffer solution. More substance is added once all the suspended material is dissolved until an equilibrium between undissolved and dissolved substance is reached. The suspension was mixed using a shaker (Heidolph Reax 2000) and treated 5 min in an ultrasound bath (Bandelin, Sonorex Super RK255H). The Gadolinium concentration of the test substance in the clear solution is measured by ICP-MS. Table 1: Solubilities of compounds in aqueous buffer at 20°C (pH 7.4).

Substance	Inhibition Rifampicine [1] [% inhibition]	Solubility [2] [mM]
Gadolinium-2,2',2"-[10-(carboxymethyl)-2-(4-ethoxybenzyl)-1,4,7,10-tetraazacyclododecane-1,4,7-triyl]triacetate [Example 8]	99	–
Gadolinium-2,2',2"-[10-(carboxymethyl)-2-(4-ethoxybenzyl)-1,4,7,10-tetraazacyclododecane-1,4,7-triyl]triacetate [Example 9]	94	> 145
Gadolinium-2,2',2"-[(2S)-2-(4-butoxybenzyl)-10-(carboxymethyl)-1,4,7,10-tetraaza cyclododecane-1,4,7-triyl]triacetate [Example 12]	98	211
Gadolinium-2,2',2"-[(2S)-2-(4-butoxybenzyl)-10-(carboxymethyl)-1,4,7,10-tetraaza cyclododecane-1,4,7-triyl]triacetate [Example 13]	98	> 43
Gadolinium-2,2',2"-[(2S)-10-(carboxymethyl)-2-(4-ethoxybenzyl)-1,4,7,10-tetraazacyclododecane-1,4,7-triyl]triacetate [Example 10]	96	> 23
Gadolinium-2,2',2"-[(2S)-10-(carboxymethyl)-2-(4-ethoxybenzyl)-1,4,7,10-tetraazacyclododecane-1,4,7-triyl]triacetate [Example 11]	90	> 146
